Data as given in ChEMBL document CHEMBL5584243, “Discovery of JNJ-74856665: A Novel Isoquinolinone DHODH Inhibitor for the Treatment of AML” (J Med Chem, 2024).
pIC50: −log10 of the molar value. Converted amounts (≈) assume the structure as drawn.

Tested on: MOLM-13
Experiment: Antiproliferative activity against human MOLM-13 cells assessed as inhibition of cell growth incubated for 72 hrs by CellTiter-Glo assay
Format: functional, cell-based
Settings: MOLM-13, 72 h

**Q.** With CCn1c(CO)nn(-c2cc3c(C(C)C)cn(-c4cc(F)ccc4C)c(=O)c3cc2F)c1=O as the compound, how does the pIC50 read?
**A.** 9.07

**Q.** With CCn1c(CO)nn(-c2cc3c(C(C)C)cn(-c4c(C)cccc4F)c(=O)c3cc2F)c1=O as the compound, how does the pIC50 read?
**A.** 9.16

**Q.** With CCn1c(CO)nn(-c2nc3c(C(C)C)cn(-c4c(F)cccc4Cl)c(=O)c3cc2F)c1=O as the compound, how does the pIC50 read?
**A.** 9.36

**Q.** With CCn1c(CO)nn(-c2cc3c(C(C)C)cn(-c4ccc(F)cc4C)c(=O)c3cc2F)c1=O as the compound, how does the pIC50 read?
**A.** 9.17

**Q.** With CCn1c(CO)nn(-c2cc3c(C(C)C)cn(-c4ccccc4F)c(=O)c3cc2F)c1=O as the compound, how does the pIC50 read?
**A.** 8.68

Tested on: not listed separately
Experiment: Passive permeability across apical to basolateral side in dog MDCK-MDR1 cells
Format: ADME, cell-based, Canis lupus familiaris
Settings: not given

**Q.** For CCn1c(CO)nn(-c2cc3c(C(C)C)cn(-c4cc(F)ccc4C)c(=O)c3cc2F)c1=O, which Papp A→B is on record?
**A.** 45.9 ×10⁻⁶ cm/s

**Q.** Which Papp A→B does the source give for CCn1c(CO)nn(-c2cc3c(C(C)C)cn(-c4c(C)cccc4F)c(=O)c3cc2F)c1=O here?
**A.** 47.4 ×10⁻⁶ cm/s

**Q.** Which Papp A→B does the source give for CCn1c(CO)nn(-c2cc3c(C(C)C)cn(-c4ccc(F)cc4C)c(=O)c3cc2F)c1=O here?
**A.** 48.2 ×10⁻⁶ cm/s

**Q.** Which Papp A→B does the source give for CCn1c(CO)nn(-c2cc3c(C(C)C)cn(-c4ccccc4F)c(=O)c3cc2F)c1=O here?
**A.** 30.1 ×10⁻⁶ cm/s

Tested on: not listed separately
Experiment: Lipophilicity, logD of compound
Format: physicochemical
Settings: octanol/water

**Q.** For CCn1c(CO)nn(-c2cc3c(C(C)C)cn(-c4ccc(F)cc4C)c(=O)c3cc2F)c1=O, which logD is on record?
**A.** 2.7

Tested on: not listed separately
Experiment: Metabolic stability in human liver microsomes assessed as half life incubated upto 60 mins in presence of NADPH by LC-MS/MS analysis
Format: ADME, Microsome
Settings: not given

**Q.** With CCn1c(CO)nn(-c2cc3c(C(C)C)cn(-c4cc(F)ccc4C)c(=O)c3cc2F)c1=O as the compound, how does the half-life read?
**A.** > 3 h

**Q.** For CCn1c(CO)nn(-c2cc3c(C(C)C)cn(-c4c(C)cccc4F)c(=O)c3cc2F)c1=O, which half-life is on record?
**A.** > 3 h

**Q.** Which half-life does the source give for CCn1c(CO)nn(-c2cc3c(C(C)C)cn(-c4ccc(F)cc4C)c(=O)c3cc2F)c1=O here?
**A.** > 3 h

**Q.** For CCn1c(CO)nn(-c2cc3c(C(C)C)cn(-c4ccccc4F)c(=O)c3cc2F)c1=O, which half-life is on record?
**A.** > 3 h

Tested on: not listed separately
Experiment: Metabolic stability in mouse liver microsomes assessed as half life incubated upto 60 mins in presence of NADPH by LC-MS/MS analysis
Format: ADME, Microsome
Settings: not given

**Q.** Which half-life does the source give for CCn1c(CO)nn(-c2cc3c(C(C)C)cn(-c4cc(F)ccc4C)c(=O)c3cc2F)c1=O here?
**A.** > 3 h

**Q.** For CCn1c(CO)nn(-c2cc3c(C(C)C)cn(-c4c(C)cccc4F)c(=O)c3cc2F)c1=O, which half-life is on record?
**A.** > 3 h

**Q.** With CCn1c(CO)nn(-c2cc3c(C(C)C)cn(-c4ccc(F)cc4C)c(=O)c3cc2F)c1=O as the compound, how does the half-life read?
**A.** > 3 h

**Q.** For CCn1c(CO)nn(-c2cc3c(C(C)C)cn(-c4ccccc4F)c(=O)c3cc2F)c1=O, which half-life is on record?
**A.** > 3 h

Tested on: not listed separately
Experiment: Equilibrium solubility of compound in PBS at pH 2 incubated for 2 to 5 days by HPLC analysis
Format: physicochemical
Settings: PBS, time 2-5 day

**Q.** Which solubility thermodynamic does the source give for CCn1c(CO)nn(-c2cc3c(C(C)C)cn(-c4cc(F)ccc4C)c(=O)c3cc2F)c1=O here?
**A.** 30 µM (≈ 13.6 µg/mL)

**Q.** With CCn1c(CO)nn(-c2cc3c(C(C)C)cn(-c4c(C)cccc4F)c(=O)c3cc2F)c1=O as the compound, how does the solubility thermodynamic read?
**A.** 23 µM (≈ 10.5 µg/mL)

**Q.** With CCn1c(CO)nn(-c2cc3c(C(C)C)cn(-c4ccc(F)cc4C)c(=O)c3cc2F)c1=O as the compound, how does the solubility thermodynamic read?
**A.** 25 µM (≈ 11.4 µg/mL)

**Q.** Which solubility thermodynamic does the source give for CCn1c(CO)nn(-c2cc3c(C(C)C)cn(-c4ccccc4F)c(=O)c3cc2F)c1=O here?
**A.** 19 µM (≈ 8.37 µg/mL)

Tested on: not listed separately
Experiment: Equilibrium solubility of compound in PBS at pH 7 incubated for 2 to 5 days by HPLC analysis
Format: physicochemical
Settings: time 2-5 day

**Q.** Which solubility thermodynamic does the source give for CCn1c(CO)nn(-c2cc3c(C(C)C)cn(-c4cc(F)ccc4C)c(=O)c3cc2F)c1=O here?
**A.** 30 µM (≈ 13.6 µg/mL)

**Q.** With CCn1c(CO)nn(-c2cc3c(C(C)C)cn(-c4c(C)cccc4F)c(=O)c3cc2F)c1=O as the compound, how does the solubility thermodynamic read?
**A.** 24 µM (≈ 10.9 µg/mL)

**Q.** For CCn1c(CO)nn(-c2cc3c(C(C)C)cn(-c4ccc(F)cc4C)c(=O)c3cc2F)c1=O, which solubility thermodynamic is on record?
**A.** 266 µM (≈ 121 µg/mL)

**Q.** With CCn1c(CO)nn(-c2cc3c(C(C)C)cn(-c4ccccc4F)c(=O)c3cc2F)c1=O as the compound, how does the solubility thermodynamic read?
**A.** 19 µM (≈ 8.37 µg/mL)
